According to the NIST ThermoML archive (doi:10.1021/je0302001):
Numbers after ± are expanded uncertainties.

Assay: mn = molality of the nth substance listed, in mol/kg
Conditions: for speed of sound / mass density / viscosity: 101.3 kPa, Liquid; for viscosity: Capillary tube (Ostwald / Ubbelohde) method; for surface tension liquid-gas: Ring tensiometer

O=[N+]([O-])[O-].O=[N+]([O-])[O-].[Zn+2] [nitric acid, zinc salt] + O
Conditions	mass density [kg/m3]	speed of sound [m/s]	surface tension liquid-gas [mN/m]	viscosity [mPa·s]
303.15 K, m1 = 2.145	–	1622.9 ± 4.3	–	–
303.15 K, m1 = 2.29	–	1632.6 ± 4.3	–	–
303.15 K, m1 = 2.292	–	1630.1 ± 4.3	–	–
303.15 K, m1 = 2.344	–	1634.7 ± 4.3	–	–
303.15 K, m1 = 2.91	–	1664 ± 4.4	–	–
303.15 K, m1 = 3.472	–	1691.2 ± 4.5	–	–
303.15 K, m1 = 4.075	–	1714.1 ± 4.5	–	–
303.15 K, m1 = 4.817	–	1739.4 ± 4.6	–	–
303.15 K, m1 = 5.224	–	1748.1 ± 4.6	–	–
303.15 K, m1 = 5.797	–	1760.4 ± 4.6	–	–
303.15 K, m1 = 6.34	–	1768.2 ± 4.7	–	–
303.15 K, m1 = 6.89	–	1772.4 ± 4.7	–	–
303.15 K, m1 = 7.349	–	1774 ± 4.7	–	–
303.2 K, m1 = 6.89	1705.2 ± 1.6	–	–	–
303.25 K, m1 = 5.8	1629.7 ± 1.5	–	–	–
303.65 K, m1 = 0.6111	1084.7 ± 0.8	–	–	–
303.65 K, m1 = 1.906	1255.3 ± 1	–	–	–
303.7 K, m1 = 0.3388	1045.4 ± 0.7	–	–	–
303.75 K, m1 = 1.113	1154 ± 0.8	–	–	–
303.75 K, m1 = 1.258	1173.4 ± 0.9	–	–	–
303.75 K, m1 = 4.075	1486.4 ± 1.3	–	–	–
303.85 K, m1 = 4.817	1551.9 ± 1.3	–	–	–
303.95 K, m1 = 2.29	1300.6 ± 1	–	–	–
304 K, m1 = 3.472	1428.2 ± 1.2	–	–	–
304.15 K, m1 = 5.224	1584.8 ± 1.4	–	–	–
304.2 K, m1 = 7.349	1732.6 ± 1.6	–	–	–
304.3 K, m1 = 1.551	1210.3 ± 0.9	–	–	–
304.3 K, m1 = 2.344	1306.7 ± 1	–	–	–
304.35 K, m1 = 0.6405	1088.5 ± 0.8	–	–	–
304.45 K, m1 = 2.292	1300.6 ± 1	–	–	–
304.85 K, m1 = 0.1329	1014.5 ± 0.7	–	–	–
304.85 K, m1 = 2.91	1369.1 ± 1.1	–	–	–
304.85 K, m1 = 6.89	1703.4 ± 1.6	–	–	–
305.1 K, m1 = 5.8	1627.9 ± 1.5	–	–	–
305.4 K, m1 = 2.145	1282.8 ± 1	–	–	–
305.45 K, m1 = 6.34	1666.3 ± 1.5	–	–	–
305.65 K, m1 = 0.0875	1007.5 ± 0.7	–	–	–
305.65 K, m1 = 4.075	1484.9 ± 1.3	–	–	–
305.7 K, m1 = 1.906	1254.1 ± 1	–	–	–
306.1 K, m1 = 1.258	1172 ± 0.9	–	–	–
306.15 K, m1 = 2.29	1299.2 ± 1	–	–	–
306.25 K, m1 = 0.2466	1031 ± 0.7	–	–	–
306.25 K, m1 = 1.113	1152.7 ± 0.8	–	–	–
306.3 K, m1 = 2.344	1305.3 ± 1	–	–	–
306.35 K, m1 = 0.6111	1083.6 ± 0.8	–	–	–
306.35 K, m1 = 2.292	1299.4 ± 1	–	–	–
306.55 K, m1 = 1.551	1209.4 ± 0.9	–	–	–
306.6 K, m1 = 0.3388	1044.3 ± 0.7	–	–	–
306.75 K, m1 = 2.91	1367.8 ± 1.1	–	–	–
307.05 K, m1 = 0.6405	1087.4 ± 0.8	–	–	–
307.35 K, m1 = 2.145	1281.5 ± 1	–	–	–
307.5 K, m1 = 4.817	1548.6 ± 1.4	–	–	–
307.55 K, m1 = 4.075	1483.4 ± 1.3	–	–	–
307.55 K, m1 = 7.349	1729.2 ± 1.6	–	–	–
307.75 K, m1 = 3.472	1425.1 ± 1.2	–	–	–
307.75 K, m1 = 5.224	1581.5 ± 1.4	–	–	–
307.85 K, m1 = 0.1329	1013.4 ± 0.7	–	–	–
307.9 K, m1 = 1.906	1252.7 ± 1	–	–	–
308.15 K, m1 = 0.0875	–	1525.6 ± 4.1	–	–
308.15 K, m1 = 0.1329	–	1523.4 ± 4	–	0.76 ± 0.009
308.15 K, m1 = 0.2466	–	1527.9 ± 4.1	–	0.787 ± 0.009
308.15 K, m1 = 0.3388	–	1532.5 ± 4.1	–	0.809 ± 0.009
308.15 K, m1 = 0.6111	–	1543.7 ± 4.1	–	0.884 ± 0.01
308.15 K, m1 = 0.6405	–	1544.7 ± 4.1	–	0.892 ± 0.01
308.15 K, m1 = 1.113	–	1566.6 ± 4.2	–	1.044 ± 0.012
308.15 K, m1 = 1.258	–	1576.6 ± 4.2	–	1.107 ± 0.013
308.15 K, m1 = 1.551	–	1592.5 ± 4.2	–	1.216 ± 0.014
308.15 K, m1 = 1.906	–	1612.5 ± 4.3	–	1.405 ± 0.016
308.15 K, m1 = 2.145	–	1624.2 ± 4.3	–	1.548 ± 0.018
308.15 K, m1 = 2.29	–	1632.3 ± 4.3	–	1.622 ± 0.019
308.15 K, m1 = 2.292	–	1630.7 ± 4.3	–	–
308.15 K, m1 = 2.344	–	1635 ± 4.3	–	1.645 ± 0.019
308.15 K, m1 = 2.91	–	1662.2 ± 4.4	–	2.035 ± 0.024
308.15 K, m1 = 3.472	–	1687 ± 4.5	–	2.554 ± 0.031
308.15 K, m1 = 4.075	–	1708.9 ± 4.5	–	3.149 ± 0.038
308.15 K, m1 = 4.817	–	1733.1 ± 4.6	–	4.24 ± 0.052
308.15 K, m1 = 5.224	–	1740.5 ± 4.6	–	4.878 ± 0.06
308.15 K, m1 = 5.797	–	1751.6 ± 4.6	–	6.183 ± 0.077
308.15 K, m1 = 6.34	–	1757.7 ± 4.6	–	7.469 ± 0.093
308.15 K, m1 = 6.89	–	1762.2 ± 4.7	–	9.274 ± 0.12
308.15 K, m1 = 7.349	–	1762.6 ± 4.7	–	10.94 ± 0.14
308.25 K, m1 = 2.344	1303.9 ± 1	–	–	–
308.3 K, m1 = 1.258	1170.8 ± 0.9	–	–	–
308.35 K, m1 = 1.113	1151.6 ± 0.9	–	–	–
308.35 K, m1 = 6.89	1699.9 ± 1.6	–	–	–
308.6 K, m1 = 1.551	1208.2 ± 0.9	–	–	–
308.75 K, m1 = 0.0875	1006.4 ± 0.7	–	–	–
308.75 K, m1 = 5.8	1624.4 ± 1.5	–	–	–
308.85 K, m1 = 2.91	1366.3 ± 1.1	–	–	–
309.05 K, m1 = 0.6111	1082.4 ± 0.8	–	–	–
309.1 K, m1 = 6.34	1662.7 ± 1.5	–	–	–
309.15 K, m1 = 0.2466	1029.9 ± 0.7	–	–	–
309.35 K, m1 = 4.817	1546.9 ± 1.4	–	–	–
309.4 K, m1 = 0.3388	1043.2 ± 0.8	–	–	–
309.45 K, m1 = 0.6405	1086.3 ± 0.8	–	–	–
309.45 K, m1 = 2.145	1280.1 ± 1	–	–	–
309.55 K, m1 = 3.472	1423.6 ± 1.2	–	–	–
309.55 K, m1 = 5.224	1579.9 ± 1.4	–	–	–
310.1 K, m1 = 2.29	1296.5 ± 1	–	–	–
310.35 K, m1 = 2.344	1302.6 ± 1	–	–	–
310.45 K, m1 = 1.258	1169.6 ± 0.9	–	–	–
310.45 K, m1 = 2.292	1296.6 ± 1	–	–	–
310.45 K, m1 = 5.8	1622.9 ± 1.5	–	–	–
310.7 K, m1 = 1.113	1150.3 ± 0.9	–	–	–
310.7 K, m1 = 2.91	1364.9 ± 1.1	–	–	–
310.75 K, m1 = 0.1329	1012.3 ± 0.7	–	–	–
310.75 K, m1 = 6.34	1661.1 ± 1.5	–	–	–
310.8 K, m1 = 7.764	1749.7 ± 1.7	–	–	–
310.85 K, m1 = 1.551	1206.9 ± 0.9	–	–	–
310.95 K, m1 = 7.349	1725.6 ± 1.6	–	–	–
311.15 K, m1 = 4.817	1545.4 ± 1.4	–	–	–
311.25 K, m1 = 5.224	1578.2 ± 1.4	–	–	–
311.35 K, m1 = 0.6111	1081.4 ± 0.8	–	–	–
311.35 K, m1 = 3.472	1422.1 ± 1.2	–	–	–
311.35 K, m1 = 4.075	1480.4 ± 1.3	–	–	–
311.4 K, m1 = 2.145	1278.8 ± 1	–	–	–
311.5 K, m1 = 0.0875	1005.4 ± 0.7	–	–	–
311.7 K, m1 = 6.89	1696.5 ± 1.6	–	–	–
311.85 K, m1 = 0.2466	1028.8 ± 0.8	–	–	–
311.85 K, m1 = 0.3388	1042.2 ± 0.8	–	–	–
311.9 K, m1 = 0.6405	1085.1 ± 0.8	–	–	–
311.9 K, m1 = 1.906	1250.1 ± 1	–	–	–
312 K, m1 = 2.29	1295.1 ± 1.1	–	–	–
312.25 K, m1 = 5.8	1621 ± 1.5	–	–	–
312.35 K, m1 = 2.292	1295.2 ± 1.1	–	–	–
312.55 K, m1 = 6.34	1659.2 ± 1.6	–	–	–
312.7 K, m1 = 1.258	1168.4 ± 0.9	–	–	–
312.85 K, m1 = 1.113	1149.1 ± 0.9	–	–	–
312.95 K, m1 = 1.551	1205.6 ± 0.9	–	–	–
313.05 K, m1 = 5.224	1576.6 ± 1.4	–	–	–
313.15 K, m1 = 0.0875	–	1533.4 ± 4.1	–	–
313.15 K, m1 = 0.1329	–	1531.7 ± 4.1	–	0.691 ± 0.008
313.15 K, m1 = 0.2263	–	–	70.59 ± 0.9	–
313.15 K, m1 = 0.2466	–	1535.7 ± 4.1	–	0.716 ± 0.008
313.15 K, m1 = 0.334	–	–	70.83 ± 0.9	–
313.15 K, m1 = 0.3388	–	–	–	0.739 ± 0.009
313.15 K, m1 = 0.6111	–	–	–	0.805 ± 0.009
313.15 K, m1 = 0.6198	–	–	71.5 ± 0.91	–
313.15 K, m1 = 0.6405	–	–	–	0.813 ± 0.009
313.15 K, m1 = 0.8228	–	–	72.2 ± 0.92	–
313.15 K, m1 = 1.113	–	–	–	0.952 ± 0.011
313.15 K, m1 = 1.258	–	–	–	1.01 ± 0.012
313.15 K, m1 = 1.259	–	–	73.37 ± 0.94	–
313.15 K, m1 = 1.549	–	–	74.1 ± 0.96	–
313.15 K, m1 = 1.551	–	–	–	1.106 ± 0.013
313.15 K, m1 = 1.818	–	–	74.61 ± 0.97	–
313.15 K, m1 = 1.906	–	–	–	1.277 ± 0.015
313.15 K, m1 = 2.145	–	–	–	1.408 ± 0.017
313.15 K, m1 = 2.222	–	–	76.05 ± 0.99	–
313.15 K, m1 = 2.29	–	–	–	1.475 ± 0.017
313.15 K, m1 = 2.344	–	–	–	1.495 ± 0.018
313.15 K, m1 = 2.526	–	–	77.02 ± 1	–
313.15 K, m1 = 2.721	–	–	77.55 ± 1	–
313.15 K, m1 = 2.91	–	–	–	1.843 ± 0.022
313.15 K, m1 = 3.426	–	–	79.09 ± 1.1	–
313.15 K, m1 = 3.472	–	–	–	2.305 ± 0.028
313.15 K, m1 = 4.011	–	–	80.79 ± 1.1	–
313.15 K, m1 = 4.075	–	–	–	2.868 ± 0.035
313.15 K, m1 = 4.231	–	–	81.05 ± 1.1	–
313.15 K, m1 = 4.817	–	–	–	3.774 ± 0.046
313.15 K, m1 = 5.133	–	–	83.04 ± 1.1	–
313.15 K, m1 = 5.224	–	–	–	4.322 ± 0.053
313.15 K, m1 = 5.797	–	–	–	5.432 ± 0.067
313.15 K, m1 = 6.245	–	–	84.64 ± 1.2	–
313.15 K, m1 = 6.34	–	–	–	6.509 ± 0.081
313.15 K, m1 = 6.89	–	–	–	7.997 ± 0.1
313.15 K, m1 = 7.349	–	–	–	9.383 ± 0.12
